Measured values: patent US20210230179A1, “THIENO[2,3-B]PYRIDINE DERIVATIVES AS EPAC INHIBITORS AND THEIR PHARMACEUTICAL USES” (INSTITUT NATIONAL DE LA SANTE ET DE LA RECHERCHE MEDICALE …, priority 2018, published 2021)

Key:
wild-type C57BL/6 mice = experiment: chronic ISO infusion (chronic β-AR activation): cardiac function, remodelling, tolerability
Source text: FIG. 17: AST and ALT activities in the serum of mice treated under the indicated conditions (left panel) (n=7 per group). Comparison of FS in animals between day 1 and day 14 in the presence or absence of AM-001 (right panel) (n=12 per group).
FIG. 18: LVW/TL ratios of mice after 14 days of treatment with vehicle or AM-001.
FIG. 20: Comparison of FS, LVIDs and LVIDd in ISO treated animals between day 1 and day 14 in the presence or absence of AM-001 (n=18-20 per group).
FIG. 21: Representative immunoblots of Epac1, GRK2, and GRK5. Statistical significance was determined by two-way ANOVA followed by Bonferroni post-test. * p<0.05, ** p<0.01, *** p<0.001, **** p<0.0001 vs indicated values. ns, not significant.
Osmotic mini-pumps (Alzet) were implanted subcutaneously in mice anaesthetized with isoflurane (1%). Pumps were filled with ISO or sterile saline and were set to deliver ISO at 60 mg/kg per day for 14 days to induce cardiac hypertrophy. AM-001 treatment (10 mg/kg/d diluted in 10% DMSO/20% Kolliphor/70% sterile saline) is given from the third day of ISO infusion. Mice were subsequently euthanized with barbiturate overdose (pentobarbital, 150 mg/kg, i.p.) and mini-pumps were weighed in order to verify complete diffusion.
Echocardiography was carried out on lightly anaesthetized (1% isoflurane in air) mice placed on a heating pad. The left ventricle dimensions were obtained during TimeMouvement mode acquisition from the parasternal short-axis view at the midventricular level of the papillary muscles using a Vevo2100 ivid7 echograph and a […] transducer (M550i13L, VisualsonicsGE Healthcare). Images were transferred and analysed off line with Vevolab software EchoPAC (GE Healthcare).
Determination of fibrosis Hearts were transversely sectioned at 10 μm thickness, fixed with 4% paraformaladehyde and stained with Sirius Red. Slides were scanned with NanoZoomer (Hamamatsu v1.2) and fibrosis was measured as positively stained area with Sirius Red and expressed as percent of total area, using ImageJ software (RSB).
Hearts were collected, fixed in 4% paraformaldehyde, dehydrated, and embedded in OCT tissue embedding compound (Tissue Tek, EMS). Longitudinal sections were performed at 10 μm in thickness and stained with hematoxylin and eosin for histological examination.
Aspartate aminotransferase (AST) and alanine aminotransferase (ALT) were measured in serum to determine the cytotoxicity, using specific kits purchased from ScienCell Research Laboratories following the manufacturer's instructions.
The inventors next sought to determine whether AM-001 could provide improvement in cardiac function and remodelling during chronic p-AR activation.

Epac2 = molecular target: T1, Epac2 (Homo sapiens, UniProt Q8WZA2); experiment: Epac GEF activity assay (b-GDP dissociation from recombinant Rap1), Epac2; assay type: biochemical
T1 sequence (Q8WZA2 1-867 isoform Q8WZA2-3): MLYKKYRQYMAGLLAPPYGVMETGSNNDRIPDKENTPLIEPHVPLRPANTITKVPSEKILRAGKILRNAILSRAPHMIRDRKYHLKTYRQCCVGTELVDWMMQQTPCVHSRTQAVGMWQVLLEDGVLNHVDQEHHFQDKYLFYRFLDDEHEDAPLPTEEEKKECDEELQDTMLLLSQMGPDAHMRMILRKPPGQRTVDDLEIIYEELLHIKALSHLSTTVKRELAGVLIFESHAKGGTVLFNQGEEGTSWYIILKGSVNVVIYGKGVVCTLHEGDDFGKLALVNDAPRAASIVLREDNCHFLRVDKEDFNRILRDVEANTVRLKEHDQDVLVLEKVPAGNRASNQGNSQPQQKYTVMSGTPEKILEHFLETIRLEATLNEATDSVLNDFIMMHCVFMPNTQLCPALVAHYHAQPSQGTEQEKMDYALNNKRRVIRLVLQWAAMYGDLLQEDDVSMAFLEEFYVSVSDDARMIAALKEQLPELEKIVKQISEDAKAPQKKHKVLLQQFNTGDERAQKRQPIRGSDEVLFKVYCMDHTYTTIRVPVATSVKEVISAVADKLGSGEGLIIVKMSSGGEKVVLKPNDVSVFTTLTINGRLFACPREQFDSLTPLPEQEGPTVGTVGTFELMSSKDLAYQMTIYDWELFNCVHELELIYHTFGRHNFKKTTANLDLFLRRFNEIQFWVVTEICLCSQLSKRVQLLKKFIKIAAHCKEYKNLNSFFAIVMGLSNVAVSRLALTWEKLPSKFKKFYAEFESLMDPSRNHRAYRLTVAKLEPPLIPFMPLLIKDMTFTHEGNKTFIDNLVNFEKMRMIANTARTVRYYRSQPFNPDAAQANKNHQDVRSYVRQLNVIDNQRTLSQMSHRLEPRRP
Source text: FIGS. 4-8. […] Variations of relative fluorescence units (RFU) were studied as a function of time and fitted to single exponentials.

[1] = ISO 60 mg/kg per day 14 days, AM-001 10 mg/kg from day 3

Nc1c(C(=O)Nc2ccc(F)cc2)sc2nc(-c3cccs3)cc(-c3ccccc3)c12 [AM-001, 3-amino-N-(4-fluorophenyl)-4-phenyl-6-(thiophen-2-yl)thieno[2,3-b]pyridine-2-carboxamide]
liver and renal histology (H & E staining) (wild-type C57BL/6 mice; 10 mg/kg i.p. day 3 to day 14): did not display any apparent histological alterations
plasma level of alanine aminotransferase (ALT) (wild-type C57BL/6 mice; 10 mg/kg i.p. day 3 to day 14): equivalent in each group
plasma level of aspartate aminotransferase (AST) (wild-type C57BL/6 mice; 10 mg/kg i.p. day 3 to day 14): equivalent in each group
LVW/TL ratio under ISO (wild-type C57BL/6 mice; [1]): further decreased
fibrosis (Sirius Red positive area, percent of total area) (wild-type C57BL/6 mice; [1]): 1.1±0.5%
left ventricular end-diastolic internal diameter (LVIDd) (wild-type C57BL/6 mice; during ISO treatment): decrease
left ventricular end-systolic internal diameter (LVIDs) (wild-type C57BL/6 mice; during ISO treatment): decrease
ISO-induced upregulation of GRK5 expression (wild-type C57BL/6 mice; immunoblot, ISO treated animals): significantly reduced
fractional shortening (FS) after 14 days of ISO (wild-type C57BL/6 mice; vs vehicle treated mice): higher FS
effect on Epac2 GEF activity (Epac2; 30 μM Sp-8-CPT, 20 μM inhibitor): no inhibitory effect
IC50 (Epac2; Sp-8-CPT at its EC50 for the isoform): > 1000 µM
IC50 (Epac2; saturating concentration of Sp-8-CPT): > 1000 µM
